Measurements from ChEMBL document CHEMBL1123729, “Synthesis and biological activity of partially modified retro-inverso pseudopeptide derivatives of the C-terminal tetrapeptide of gastrin” (J Med Chem, 1987).
Calls of active or inactive are those of the source. The rule behind the calls is not given here. Peptide text beside a SMILES is read from it. * marks the point of attachment. Boc = CC(C)(C)OC(=O)*

What was measured:
Rattus norvegicus [1] = assay: Effective dose required to inhibit gastrin-induced acid secretion in the in situ perfused rat stomach (anesthetized rat); assay type: functional
Rattus norvegicus [2] = assay: Agonistic activity against gastrin induced acid secretion in the anesthetized rats; No agonist activity at doses as high as 3 mg/kg; assay type: functional, organism-based; design: dose 3 mg/kg
Rattus norvegicus [3] = assay: Agonistic activity against gastrin induced acid secretion in the anesthetized rats at a dose of 3 mg/kg;*=1/4 of the agonistic activity; assay type: functional, organism-based; design: dose 3 mg/kg; conditions: filed as partial agonist
Rattus norvegicus [4] = assay: Agonistic activity against gastrin induced acid secretion in the anesthetized rats at a dose of 3 mg/kg; **** indicate full activity of tetragastrin; assay type: functional, organism-based; design: dose 3 mg/kg; conditions: filed as agonist

SMILES | ED50 (Rattus norvegicus [1]) [µmol/kg] | Agonist activity (Rattus norvegicus [2]) | Agonist activity (Rattus norvegicus [3]) | Agonist activity (Rattus norvegicus [4])
CCCCOC(=O)CCNC(=O)[C@H](Cc1c[nH]c2ccccc12)NC(=O)[C@@H](CCCC)NC(=O)[C@H](CC(=O)O)NC(=O)CCc1ccccc1 | 10.4 | – | – | –
CC(C)C[C@H](NC(=O)[C@H](Cc1c[nH]c2ccccc12)NC(=O)OC(C)(C)C)C(=O)N[C@H](CC(=O)O)NC(=O)NCc1ccccc1 | 0.9 | inactive | – | –
CCCC[C@@H](NC(=O)[C@H](CC(=O)O)NC(=O)NCc1ccccc1)NC(=O)[C@@H](Cc1c[nH]c2ccccc12)NC(=O)OC(C)(C)C | 1.1 | – | Partial agonist | –
CC(C)C[C@@H](NC(=O)[C@H](CC(=O)O)NC(=O)C(Cc1ccccc1)C(N)=O)NC(=O)[C@@H](Cc1c[nH]c2ccccc12)NC(=O)OC(C)(C)C (some centres not stated) | 0.15 | – | Partial agonist | –
CCCCOC(=O)CCNC(=O)[C@H](Cc1c[nH]c2ccccc12)NC(=O)[C@@H](CCCC)NC(=O)[C@H](CC(=O)O)NC(=O)NCc1ccccc1 | – | inactive | – | –
CC(C)C[C@H](NC(=O)[C@@H](Cc1c[nH]c2ccccc12)NC(=O)OC(C)(C)C)C(=O)N[C@H](CC(=O)O)NC(=O)CCc1ccccc1 | 0.15 | inactive | – | –
CC(C)C[C@H](NC(=O)[C@@H](Cc1c[nH]c2ccccc12)NC(=O)OC(C)(C)C)C(=O)N[C@H](CC(=O)O)NC(=O)C(Cc1ccccc1)C(N)=O (some centres not stated) | 0.3 | – | Partial agonist | –
CCCC[C@@H](NC(=O)[C@H](CC(=O)O)NC(=O)CCc1ccccc1)NC(=O)[C@@H](Cc1c[nH]c2ccccc12)NC(=O)OC(C)(C)C | 2.5 | – | Partial agonist | –
CC(C)C[C@H](NC(=O)[C@H](Cc1c[nH]c2ccccc12)NC(=O)OC(C)(C)C)C(=O)N[C@@H](CC(=O)O)C(=O)N[C@@H](Cc1ccccc1)C(N)=O (Boc-WLDF-NH2) | – | – | – | Agonist
CCCN(CCC)C(=O)C(CCC(=O)O)NC(=O)c1ccccc1 (configuration not stated) [PROGLUMIDE] | 350 | inactive | – | –
